Tests used:
[1] = test system: MCF-7; assay: relative IC50 (midpoint of fitted logistic curve, plateau may be below 50% inhibition; CellTiter-Glo viability); higher = less potent; conditions: 72 h
Description: (§1)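 FIMM FO2B library drugs were plated at 5 concentrations spanning a 10,000-fold range in 384-well plates. Cells were incubated for 72 h at 37 °C and viability was read by CellTiter-Glo, normalised to DMSO (0% inhibition) and 100 µM benzethonium chloride (100% inhibition). IC50 values come from logistic dose-response fits (Breeze pipeline). Tamoxifen-resistant lines and the 'in 1µM tamoxifen' parental arms were tested in medium with 1 µM 4-OH-tamoxifen.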

[2] = test system: T-47D; assay: as above; conditions: 72 h
Description: as §1

[3] = test system: ZR-75-1; assay: as above; conditions: 4-OH-tamoxifen in medium 0 µM; 72 h
Description: as §1

[4] = test system: BT-474 Tam1; assay: as above; conditions: 4-OH-tamoxifen in medium 1 µM; 72 h
Description: as §1

[5] = test system: ZR-75-1 Tam1; assay: as above; conditions: 4-OH-tamoxifen in medium 1 µM; 72 h
Description: as §1

[6] = test system: BT-474; assay: as above; conditions: 72 h
Description: as §1

[7] = test system: ZR-75-1 Tam2; assay: drug sensitivity score (DSS) (DSS (dimensionless)); higher = more sensitive; extreme values may be limits of the assay; conditions: 4-OH-tamoxifen in medium 1 µM; 72 h
Description: (§2)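 FIMM FO2B library drugs were tested at 5 concentrations (10,000-fold range) for 72 h, with CellTiter-Glo viability normalised to DMSO and benzethonium chloride controls. The Drug Sensitivity Score (DSS) is computed from the fitted logistic dose-response curve (area-based; 0 = inactive). Resistant lines and the 'in 1µM tamoxifen' arms were tested in 1 µM 4-OH-tamoxifen.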

[8] = test system: MCF-7; assay: as above; conditions: 72 h
Description: as §2

[9] = test system: BT-474 Tam2; assay: as above; conditions: 4-OH-tamoxifen in medium 1 µM; 72 h
Description: as §2

[10] = test system: T-47D; assay: as above; conditions: 72 h
Description: as §2

[11] = test system: T-47D Tam1; assay: as above; conditions: 4-OH-tamoxifen in medium 1 µM; 72 h
Description: as §2

[12] = test system: ZR-75-1; assay: as above; conditions: 72 h
Description: as §2

[13] = test system: BT-474 Tam1; assay: as above; conditions: 4-OH-tamoxifen in medium 1 µM; 72 h
Description: as §2

[14] = test system: T-47D Tam2; assay: as above; conditions: 4-OH-tamoxifen in medium 1 µM; 72 h
Description: as §2

[15] = test system: ZR-75-1 Tam1; assay: as above; conditions: 4-OH-tamoxifen in medium 1 µM; 72 h
Description: as §2

[16] = test system: MCF-7 Tam1; assay: as above; conditions: 4-OH-tamoxifen in medium 1 µM; 72 h
Description: as §2

[17] = test system: BT-474; assay: as above; conditions: 72 h
Description: as §2

[18] = test system: ZR-75-1 Tam2; assay: relative IC50 (midpoint of fitted logistic curve, plateau may be below 50% inhibition; CellTiter-Glo viability); higher = less potent; conditions: 4-OH-tamoxifen in medium 1 µM; 72 h
Description: as §1

[19] = test system: BT-474 Tam2; assay: as above; conditions: 4-OH-tamoxifen in medium 1 µM; 72 h
Description: as §1

Compound | relative IC50 ([1]; 4-OH-tamoxifen in medium 0 µM) [µM] | relative IC50 ([1]; 4-OH-tamoxifen in medium 1 µM) [µM] | relative IC50 ([2]; 4-OH-tamoxifen in medium 0 µM) [µM] | relative IC50 [3] [µM] | relative IC50 [4] [µM] | relative IC50 [5] [µM] | relative IC50 ([6]; 4-OH-tamoxifen in medium 1 µM) [µM] | drug sensitivity score [7] | drug sensitivity score ([8]; 4-OH-tamoxifen in medium 0 µM) | drug sensitivity score ([8]; 4-OH-tamoxifen in medium 1 µM) | drug sensitivity score [9] | drug sensitivity score ([10]; 4-OH-tamoxifen in medium 0 µM) | drug sensitivity score ([10]; 4-OH-tamoxifen in medium 1 µM) | drug sensitivity score [11] | drug sensitivity score ([12]; 4-OH-tamoxifen in medium 0 µM) | drug sensitivity score ([12]; 4-OH-tamoxifen in medium 1 µM) | drug sensitivity score [13] | drug sensitivity score [14] | drug sensitivity score [15] | drug sensitivity score [16] | drug sensitivity score ([17]; 4-OH-tamoxifen in medium 0 µM) | drug sensitivity score ([17]; 4-OH-tamoxifen in medium 1 µM) | relative IC50 [18] [µM] | relative IC50 ([2]; 4-OH-tamoxifen in medium 1 µM) [µM] | relative IC50 ([6]; 4-OH-tamoxifen in medium 0 µM) [µM] | relative IC50 [19] [µM]
CNC(=O)c1ccccc1Sc1ccc2c(/C=C/c3ccccn3)n[nH]c2c1 [Axitinib] | 3.32 | 1.48 | 2.77 | > 10 | 3.25 | > 10 | 1.65 | 1.49 | 1.43 | 2.88 | 1.5 | 2.18 | 0.979 | 1.41 | 0 | 0.656 | 2.01 | 0.968 | 0 | 1.84 | 0.518 | 3.56 | – | – | – | –
COc1ccc(C2=N[C@@H](c3ccc(Cl)cc3)[C@@H](c3ccc(Cl)cc3)N2C(=O)N2CCNC(=O)C2)c(OC(C)C)c1 [Nutlin-3] | – | 2.08 | > 10 | 2.79 | 3.21 | 1.9 | – | 4.17 | 2.64 | 3.36 | 2.34 | 0 | 0 | 0.605 | 1.96 | 2.65 | 1.52 | 0.429 | 2.29 | 0.214 | 0 | 0.0005 | 1.35 | > 10 | > 10 | –
c1ccc2c(CCNc3ccc(Nc4ccncc4)cc3)c[nH]c2c1 | 3.72 | – | – | – | 3.22 | – | 3.98 | 1.69 | 2.88 | 0.416 | 1.44 | 0.192 | 0 | 0.685 | 0.0538 | 0.973 | 5.04 | 0.542 | 0.823 | 0.0212 | 0 | 3.42 | 2.76 | > 10 | > 10 | 3.9
